The source of these data is PMC11897524 (Frontiers in Pharmacology, 2025).

By Kd is commonly meant the constant that tells how readily two partners part at equilibrium. A higher Kd goes with weaker binding. One may read the IC50 as the point on the concentration scale where inhibition reaches its midpoint. Low readings indicate higher potency, high ones lower potency.

In one test the target is STAT4 (Homo sapiens, UniProt Q14765). The experiment in a line: Binding affinity to BET and STAT family members.
The target in the next test is BRDT (Homo sapiens, UniProt Q58F21). Description: Binding affinity to BET and STAT family members.
The test system of the next test is STAT3 phosphorylation. Description: Western blot of phosphorylated STAT3 in CAKI-2 cells. To be noted: 100 nM, 24 h. The format is cell-based, human. As for the experimental part:
For the assessment of protein expression levels, Western blot analysis was conducted following a standardized protocol ([Zhou et al., 2022]). The CAKI-2 cells were initially rinsed with PBS to remove any residual culture medium. Subsequently, cells were lysed using a RIPA buffer supplemented with 1 mM phenylmethylsulfonyl fluoride (PMSF), and the lysate was incubated on ice for a duration of 1 h. The lysate was centrifuged at a speed of 13,000 rpm for 30 min at 4°C. Protein concentrations were quantified using a BCA protein assay kit (Beyotime, Shanghai, China), ensuring equal protein loading for each sample. Samples were then resolved by SDS-PAGE and transferred onto a polyvinylidene difluoride (PVDF) membrane. Subsequently, the membrane was blocked with 3% BSA in PBS at room temperature for 2 h and incubated overnight with the corresponding antibody at 4°C. After washing to remove unbound primary antibodies, the membrane was incubated with horseradish peroxidase (HRP)-conjugated secondary antibodies for a period of 1 h at room temperature. The specific protein bands were visualized using ECL detection system (Tanon, Shanghai, China), and the band intensities were quantified using ImageJ software.
(In general: A western blot detects proteins with antibodies after separation by electrophoresis.)

In test [1] the target is T1, BRD4 (Homo sapiens, UniProt O60885). The experiment in a line: AlphaScreen BRD4 binding inhibition assay. Details: purchased Abcam. In general terms: Alpha assays give light when donor and acceptor beads are brought close together.
Experimental: The inhibitory effect was measured through the previously described the amplified luminescent proximity homogeneous assay (AlphaScreen) ([Feng et al., 2018]). First, the compounds were diluted twofold to different concentrations (64, 32, 16, 8, 4, 2, 1, 0.5, 0.25, 0.125, 0.0625 nM) and each was incubated with BRD4 protein at a concentration of 12.5 nM for 15 min at room temperature. Biotin-labeled peptide (SGRG-K(Ac)-GG-K(Ac)-GLG-K(Ac)-GGA-K (Ac)-RHRKVGG-K-biotin) was added for 10 min, followed by streptavidin donor beads and AlphaScreen nickel chelate acceptor and incubation for 1h. All components were incubated in a total volume of 20 μL assay buffer containing 20 mM HEPES, pH 7.4, 0.1% bovine serum albumin (BSA, w/v), 0.01% Triton X-100, and 1 mM DTT. Finally, counts were measured by EnVision (Perkin Elmer, Hopkinton, MA) and analyzed by Graphpad Prism 7.0 software.
Test [2] addresses T2, STAT3 (Homo sapiens, UniProt P40763). Description: STAT3 binding inhibition assay. Also noted: purchased Abcam.
Target sequence in this assay (P40763 whole entry): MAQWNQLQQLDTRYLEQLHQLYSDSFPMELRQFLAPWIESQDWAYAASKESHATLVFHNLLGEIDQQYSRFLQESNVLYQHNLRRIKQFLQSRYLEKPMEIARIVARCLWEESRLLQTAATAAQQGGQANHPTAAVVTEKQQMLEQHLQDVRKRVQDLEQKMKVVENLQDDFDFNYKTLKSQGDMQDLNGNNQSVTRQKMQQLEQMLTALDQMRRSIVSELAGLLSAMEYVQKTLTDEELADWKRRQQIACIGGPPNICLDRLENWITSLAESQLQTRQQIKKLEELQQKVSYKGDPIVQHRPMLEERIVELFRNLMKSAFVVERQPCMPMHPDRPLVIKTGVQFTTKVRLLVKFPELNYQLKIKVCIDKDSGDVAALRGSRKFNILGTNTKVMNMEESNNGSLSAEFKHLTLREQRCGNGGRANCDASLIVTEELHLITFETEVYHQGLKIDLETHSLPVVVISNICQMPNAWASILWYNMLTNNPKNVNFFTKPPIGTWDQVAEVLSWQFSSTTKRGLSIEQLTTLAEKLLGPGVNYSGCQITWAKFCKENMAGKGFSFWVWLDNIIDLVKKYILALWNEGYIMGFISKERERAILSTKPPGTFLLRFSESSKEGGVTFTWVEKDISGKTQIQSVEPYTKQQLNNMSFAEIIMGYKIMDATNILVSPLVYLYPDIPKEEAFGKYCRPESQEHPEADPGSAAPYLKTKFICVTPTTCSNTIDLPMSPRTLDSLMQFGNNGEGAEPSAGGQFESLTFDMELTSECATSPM
In the next test the target is STAT1 (Homo sapiens, UniProt P42224). The experiment in a line: Binding affinity to BET and STAT family members.
The target in a further test is STAT6 (Homo sapiens, UniProt P42226). Description: Binding affinity to BET and STAT family members.
Another test has as its system c-myc mRNA. Description: RT-qPCR of c-myc mRNA in CAKI-2 cells. Type of test: cell-based, human. To be noted: 24 h, different concentrations. Here is the method:
(§1) This method was performed as previously reported. Briefly, the CAKI-2 cells were seeded into 6-well plates and cultured overnight, and treated with different concentrations of BST-4 for 24 h. RNA was extracted from cells and tissues using Trizol reagent and reverse transcribed using PrimeScriptRTase. cDNA was used for RT-qPCR SYBR Green assays (Takara). The relative levels of c-myc mRNA were calculated as [(c-myc mRNA in the treatment group)/(β-actin mRNA in the treatment group)]/[(c-myc mRNA in the control group)/(β-actin mRNA in the control group).

The target of test [3] is T1, BRD4. Description: NanoBRET assay in HEK293T cells. Details: NanoLuc BRD4/STAT3 FL Fusion Vector DNA; expressed in transfected cells; host or cells: HEK293T. Type of test: cell-based. Here is the method: (§2) The method was performed as previously reported ([Horai et al., 2024]). Briefly, HEK293T cells were seeded in dishes and allow the cells to attach and recover for overnight. The mixture of Histone H4 HaloTag Fusion vector DNA, NanoLuc BRD4/STAT3 FL Fusion Vector DNA, opti-MEM, and FuGENE HD was added dropwise to the HEK293T cells followed by incubation for 20–24 h at 37°C and 5% CO2 and allow the proteins to express. The cells were collected and re-seeded in 384 well plates. HaloTag NanoBRET 618 Ligand was added to plate and allow the cells to attach and recover for 4 h. Serially diluted compounds were transferred to the plate and incubated the plate overnight. Then NanoBRET Nano-Glo Substrate in Opti-MEM was added, and shake plate to mix. The donor emission (450 nm) and acceptor emission (610 nm), BRET signal, were measured within 10 min of substrate addition using microplate reader (Envision, PerkinElmer). Data analysis was done by measuring the ratio of acceptor emission to donor emission (BRET ratio). IC50 values and curve fits were obtained using GraphPad Prism 7.0 software.
For orientation: BRET reads energy transfer from a luciferase to a nearby fluorophore.

Test [4] concerns the target T2, STAT3. The experiment in a line: NanoBRET assay in HEK293T cells. The format is cell-based. Details: NanoLuc BRD4/STAT3 FL Fusion Vector DNA; expressed in transfected cells; host or cells: HEK293T. As for the experimental part: as §2
Target sequence in this assay (P40763 2-770): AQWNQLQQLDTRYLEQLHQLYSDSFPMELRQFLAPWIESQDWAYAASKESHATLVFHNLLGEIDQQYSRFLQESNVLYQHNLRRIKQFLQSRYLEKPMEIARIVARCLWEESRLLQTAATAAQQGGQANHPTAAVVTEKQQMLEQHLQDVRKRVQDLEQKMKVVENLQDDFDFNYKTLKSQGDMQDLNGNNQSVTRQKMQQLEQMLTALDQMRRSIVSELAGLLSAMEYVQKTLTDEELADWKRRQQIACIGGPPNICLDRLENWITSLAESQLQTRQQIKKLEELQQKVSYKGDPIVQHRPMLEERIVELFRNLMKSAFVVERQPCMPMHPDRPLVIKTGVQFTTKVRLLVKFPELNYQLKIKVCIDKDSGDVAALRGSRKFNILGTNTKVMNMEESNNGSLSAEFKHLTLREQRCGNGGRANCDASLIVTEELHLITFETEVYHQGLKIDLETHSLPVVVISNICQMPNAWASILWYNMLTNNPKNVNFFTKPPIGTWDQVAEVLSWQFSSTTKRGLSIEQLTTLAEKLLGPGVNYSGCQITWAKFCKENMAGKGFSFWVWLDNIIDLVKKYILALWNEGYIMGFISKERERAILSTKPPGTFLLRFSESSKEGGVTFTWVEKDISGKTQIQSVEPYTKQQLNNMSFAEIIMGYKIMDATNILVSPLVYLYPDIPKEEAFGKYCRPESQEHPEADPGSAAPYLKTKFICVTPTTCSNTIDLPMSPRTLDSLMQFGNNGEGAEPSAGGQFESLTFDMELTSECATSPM
In a further test the target is BRD3 (Homo sapiens, UniProt Q15059). Description: Binding affinity to BET and STAT family members.
The test system of the next test is c-myc mRNA and Ki67 mRNA. The experiment in a line: RT-qPCR on xenograft tumor tissues. Type of test: in vivo, BALB/c nude mice. To be noted: xenograft tumor tissue. As for the experimental part:
as §1
To further investigate the in vivo effects of BST-4, 6–8 weeks male BALB/c nude mice were obtained by Changzhou Cavens Experimental Animal Co., Ltd. (Changzhou, China). The mice were acclimatized to the laboratory environment for a week before the experiment. The housing conditions were maintained at a temperature of 22°C ± 2°C, a relative humidity of 50%–60%, and a 12-h light/dark cycle. 0.1 mL of CAKI-2cell suspension (1 × 10⁶ cells) was subcutaneously injected into the right flank of each mouse. […] The vehicle group was injected with a vehicle solution consisting of 5% DMSO and PBS. The tumor volume of mice was measured every 2 days and calculated according to the formula: (c × c × d)/2, where c and d represent the minimum diameter and maximum diameter, respectively. […]

The structures appear in SMILES notation.

Sequence of STAT6 (P42226 whole entry): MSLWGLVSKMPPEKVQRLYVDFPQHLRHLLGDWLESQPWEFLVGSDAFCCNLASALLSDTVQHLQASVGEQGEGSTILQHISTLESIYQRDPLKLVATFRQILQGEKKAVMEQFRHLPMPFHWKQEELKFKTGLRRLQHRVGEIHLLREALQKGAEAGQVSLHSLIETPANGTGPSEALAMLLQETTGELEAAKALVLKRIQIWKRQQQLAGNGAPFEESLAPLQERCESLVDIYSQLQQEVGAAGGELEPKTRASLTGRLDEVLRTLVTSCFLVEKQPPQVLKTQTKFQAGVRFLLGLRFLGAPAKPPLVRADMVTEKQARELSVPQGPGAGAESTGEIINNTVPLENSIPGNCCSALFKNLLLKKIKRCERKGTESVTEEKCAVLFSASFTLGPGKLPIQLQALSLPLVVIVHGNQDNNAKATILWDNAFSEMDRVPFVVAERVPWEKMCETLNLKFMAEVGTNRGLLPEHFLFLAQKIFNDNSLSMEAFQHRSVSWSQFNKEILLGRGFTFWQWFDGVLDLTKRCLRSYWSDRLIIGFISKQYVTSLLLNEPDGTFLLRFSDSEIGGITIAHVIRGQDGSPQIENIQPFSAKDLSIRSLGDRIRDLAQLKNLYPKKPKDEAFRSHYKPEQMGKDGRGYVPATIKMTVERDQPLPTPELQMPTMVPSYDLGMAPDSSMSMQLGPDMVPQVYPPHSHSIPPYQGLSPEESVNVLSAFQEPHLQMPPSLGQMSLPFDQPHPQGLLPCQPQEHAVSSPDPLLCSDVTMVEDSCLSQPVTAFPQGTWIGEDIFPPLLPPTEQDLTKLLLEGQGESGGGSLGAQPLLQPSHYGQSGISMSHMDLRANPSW
Sequence of STAT4 (Q14765 whole entry): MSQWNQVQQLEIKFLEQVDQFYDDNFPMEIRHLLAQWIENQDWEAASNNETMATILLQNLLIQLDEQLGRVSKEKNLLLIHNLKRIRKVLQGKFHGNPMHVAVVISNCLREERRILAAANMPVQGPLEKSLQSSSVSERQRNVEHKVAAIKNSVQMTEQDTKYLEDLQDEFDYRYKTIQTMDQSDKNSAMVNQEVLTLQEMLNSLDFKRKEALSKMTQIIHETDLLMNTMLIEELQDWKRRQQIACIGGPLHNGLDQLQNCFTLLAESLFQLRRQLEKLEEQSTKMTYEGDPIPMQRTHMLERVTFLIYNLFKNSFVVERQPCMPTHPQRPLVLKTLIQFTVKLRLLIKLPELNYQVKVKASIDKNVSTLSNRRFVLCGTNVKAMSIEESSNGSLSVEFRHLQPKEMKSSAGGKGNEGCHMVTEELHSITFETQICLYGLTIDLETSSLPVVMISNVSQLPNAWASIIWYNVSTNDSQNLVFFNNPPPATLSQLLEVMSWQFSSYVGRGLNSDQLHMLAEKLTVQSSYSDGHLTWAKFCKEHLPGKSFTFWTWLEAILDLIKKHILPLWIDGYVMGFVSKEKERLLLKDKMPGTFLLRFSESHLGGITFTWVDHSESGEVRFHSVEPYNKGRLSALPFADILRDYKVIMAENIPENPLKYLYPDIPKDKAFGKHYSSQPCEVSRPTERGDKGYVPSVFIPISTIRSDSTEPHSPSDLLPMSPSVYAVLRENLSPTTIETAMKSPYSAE
Sequence of STAT1 (P42224 whole entry): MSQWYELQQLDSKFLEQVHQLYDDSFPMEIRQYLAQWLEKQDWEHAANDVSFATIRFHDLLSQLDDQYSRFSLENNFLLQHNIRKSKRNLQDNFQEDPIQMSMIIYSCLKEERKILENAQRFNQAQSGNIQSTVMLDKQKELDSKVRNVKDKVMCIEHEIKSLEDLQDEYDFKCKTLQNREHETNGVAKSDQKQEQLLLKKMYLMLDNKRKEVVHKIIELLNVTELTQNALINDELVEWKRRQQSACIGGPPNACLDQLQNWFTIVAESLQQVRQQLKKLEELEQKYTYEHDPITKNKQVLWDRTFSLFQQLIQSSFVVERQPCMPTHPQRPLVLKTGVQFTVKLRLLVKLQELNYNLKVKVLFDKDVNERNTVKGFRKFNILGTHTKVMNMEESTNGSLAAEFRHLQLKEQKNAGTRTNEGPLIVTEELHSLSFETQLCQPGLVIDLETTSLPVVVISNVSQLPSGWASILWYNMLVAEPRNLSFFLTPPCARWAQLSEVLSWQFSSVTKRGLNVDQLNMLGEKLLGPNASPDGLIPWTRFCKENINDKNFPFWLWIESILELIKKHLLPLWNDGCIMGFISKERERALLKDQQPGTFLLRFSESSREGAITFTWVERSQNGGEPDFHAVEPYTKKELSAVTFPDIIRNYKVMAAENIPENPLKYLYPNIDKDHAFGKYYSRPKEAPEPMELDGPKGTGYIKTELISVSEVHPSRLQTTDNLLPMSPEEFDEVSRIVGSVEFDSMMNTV
Sequence of BRD3 (Q15059 whole entry): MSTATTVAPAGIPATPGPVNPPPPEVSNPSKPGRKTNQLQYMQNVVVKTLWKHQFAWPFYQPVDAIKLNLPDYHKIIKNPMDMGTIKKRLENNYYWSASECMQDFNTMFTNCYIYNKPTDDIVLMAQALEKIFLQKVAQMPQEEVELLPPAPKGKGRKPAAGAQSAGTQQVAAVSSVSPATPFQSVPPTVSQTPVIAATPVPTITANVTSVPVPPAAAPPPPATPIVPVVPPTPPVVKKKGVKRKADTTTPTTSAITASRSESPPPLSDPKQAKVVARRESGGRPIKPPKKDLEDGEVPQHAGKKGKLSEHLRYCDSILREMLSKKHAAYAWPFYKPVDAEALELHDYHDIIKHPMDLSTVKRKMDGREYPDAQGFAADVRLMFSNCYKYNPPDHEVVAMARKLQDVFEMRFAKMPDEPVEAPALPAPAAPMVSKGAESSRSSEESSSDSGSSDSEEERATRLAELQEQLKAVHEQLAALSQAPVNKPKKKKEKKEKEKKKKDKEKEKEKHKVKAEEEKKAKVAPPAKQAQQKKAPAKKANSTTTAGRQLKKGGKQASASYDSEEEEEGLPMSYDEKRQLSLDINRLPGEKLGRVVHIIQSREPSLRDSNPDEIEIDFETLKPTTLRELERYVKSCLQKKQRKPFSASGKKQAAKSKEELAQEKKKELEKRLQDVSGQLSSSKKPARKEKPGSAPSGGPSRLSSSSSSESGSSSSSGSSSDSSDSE

As for `CCS(=O)(=O)Cc1cnc(Oc2c(F)cc(F)cc2OCCCCOc2ccc(/C=C/c3cc(OC)cc(OC)c3)cc2)c(-c2cc(C)c3c(=O)[nH]ccn23)c1` [BST-4], the Kd on STAT4, at BRDT, on STAT1, on STAT6 and on BRD3 was more than 10 µM each time. The “STAT3 phosphorylation in CAKI-2 cells” value with STAT3 phosphorylation is reported as “significantly decreased”. Also, the IC50 stood at 2.45 ± 0.11 nM at BRD4 [1], 8.07 ± 0.51 nM on STAT3 [2], 2.58 ± 0.07 nM on BRD4 [3] and 5.17 ± 0.09 nM against STAT3 [4]. Moreover, the “BRD4 inhibition relative to RVX-208” value on BRD4 [1] (IC50 ratio vs RVX-208) is on record as “about 16 fold”. Also, the “STAT3 inhibition relative to CJ-1383” value at STAT3 [2] (IC50 ratio vs CJ-1383) is listed as “about 115 fold”. Besides, the “expression of c-myc mRNA in CAKI-2 cells” value in the test with c-myc mRNA was “strongly dose-dependent downregulated”. Also, the “Ki67 mRNA expression level in tumor tissues in vivo” value in the test on c-myc mRNA and Ki67 mRNA is listed as “downregulated”. The “c-myc mRNA expression level in tumor tissues in vivo” value in the test with c-myc mRNA and Ki67 mRNA is given as “downregulated”.
